Laboratory results taken from patent publication US20260226046A1 (JIANGSU HANSOH PHARMACEUTICAL GROUP CO., LTD., priority 2023, published 2026).

Columns and labels:
[1] = Solubility determination of crystal form C of tromethamine salt; type: physicochemical; conditions: 37 °C, thermodynamic from solid
Description: 1 to 2 mg of compound 28 was weighed into a 1.5 mL liquid phase vial, then 1 mL of pH buffer, artificial simulated gastric fluid (FaSSGF), artificial fasted-state simulated intestinal fluid (FaSSIF), artificial non-fasted-state simulated intestinal fluid (FeSSIF), and pure water were respectively added, and the mixture was placed on a constant temperature oscillator overnight at a temperature of 37 degrees. After 24 h, the sample solution was filtered with a 0.45 μm mixed water fiber filter membrane and then the filtrate was taken. The content was tested by HPLC. For the HPLC detection method, please refer to the solution stability analysis method in Section 1.2.

[2] = Thermodynamic stability experiment of crystal form (slurrying in solvents); type: physicochemical
Description: Through polycrystalline screening test, the relatively thermodynamically stable crystal form of salt was found.
The mixture was slurried at 40 degrees for 2 days, and centrifuged, and the solid was oven-dried in vacuo at 40 degrees overnight, and then XRD and other corresponding characterizations were performed.

- solubility at 24 h ([1]; aqueous buffer, USP Buffer pH 7.4, 37 degrees): 254 µg/mL
- solubility at 24 h ([1]; FaSSIF, 37 degrees): 478 µg/mL
- solubility at 24 h ([1]; FeSSIF, 37 degrees): 756 µg/mL
- solubility at 24 h ([1]; water, H2O, 37 degrees): 66.4 µg/mL
- XRD after slurrying for 2 days ([2]; EA 200 ul, 40 degrees): Crystal form C
- XRD after slurrying for 2 days ([2]; EtOH 200 ul, 40 degrees): Crystal form C
- XRD after slurrying for 2 days ([2]; Heptane 200 ul, 40 degrees): Crystal form C
- XRD after slurrying for 2 days ([2]; IPA 200 ul, 40 degrees): Crystal form C
- XRD after slurrying for 2 days ([2]; IPAC 200 ul, 40 degrees): Crystal form C
- XRD after slurrying for 2 days ([2]; IPE 200 ul, 40 degrees): Crystal form C
- XRD after slurrying for 2 days ([2]; MTBE 200 ul, 40 degrees): Crystal form C
- XRD after slurrying for 2 days ([2]; hexane 200 ul, 40 degrees): Crystal form C
- Stability of crystal form (in words) ([2]; slurried in solvents at 40 degrees for 2 days): very stable
- Phenomenon after slurrying for 2 days ([2]; water 200 ul, 10 mg, 40 degrees): Dissolved clarification
Compound: O=C(O)c1ccc2nc(CN3CCC(c4cccc5c4OC(c4ccc(Cl)cc4F)C=C5)CC3)n(CC3CCO3)c2c1 (centres unmarked)
